Experiment [1] has as its system RAW 264.7 cells. In words: PGE2 production/accumulation in LPS-stimulated RAW 264.7 cells. In kind it is cell-based, murine. The note with it: LPS 100 ng/ml, minocycline 40 μg/ml; for PGE2 accumulation: 16 hours; for activation at 40 µg/mL: Mus musculus, RAW264.7, 16 h, printed in parentheses = increase. The method, then:
(§1) Murine macrophages (RAW 263.7 cells) which were grown in Dulbecco's modified eagle medium (DMEM) containing 10% fetal bovine serum, 2 mM glutamine, 50 U/ml penicillin and 50 μg/ml streptomycin, were stimulated with 100 ng/ml LPS to induce both NOS and COX-2 at 16 hr. […] The data presented in FIG. 1 represents mean±SD as examined by T test were n=3.
(§2) The effects of CMTs 1, 2, 3, 5 and 8 on PGE2 and NO accumulation in RAW 264.7 cells were further evaluated as described above for CMT-3. […]

The subject of another experiment is arthritis. The note with it: mild and moderate arthritis; Tilley et al, 1995; words; cited from earlier work.
Another experiment deals with COX-2. In words: COX-2 expression in cells/cartilage (general statement). The experiment is classed as cell-based. Particulars: words.
Experiment [2] relates to OA-affected cartilage. The experiment in a line: Spontaneous PGE2 release by OA-affected cartilage (ex vivo organ culture). In kind it is cell-based, human. The note with it: for Effect on PGE2 production: human OA-affected cartilage, words. The method, then: (§3) Human osteoarthritis affected cartilage spontaneously release nitric oxide (NO) and PGE2 in the medium as previously reported (Amin et al, 1995a; 1997a). The OA-organ cultures were set up as described (Amin et al, 1995a; 1997a). Briefly, total knee articular cartilage from tibial plateau and femoral condyle were harvested from OA-affected patients. The cartilage was mixed and cut into 3-mm discs and 4-6 discs were placed in triplicate or quadruplicate, in a 24-well plate in 2.0 ml of Ham's F-12 medium supplemented with 0.2% endotoxin free human albumin, 10 mM Hepes pH 7.4 and antibiotics in the presence of various modulators, as previously described (Amin et al, 1995a; 1997a). CMT-8 was used at pharmacologically relevant concentrations in DMSO (<0.01% final concentration) as carrier. An equivalent amount of DMSO was also added in the control cultures.
(§4) The p value between control and CMT-8 treated values for PGE2≤0.1 (insignificant) whereas the p values between NMMA treated cartilage and CMT-8 treated cartilage was ≤0.001 (significant). The data are represented as mean±SD as examined by T test when n=3. Data represent±SD value as determined by Student's t test n=4. The P values described are compared with control unstimulated OA-cartilage. The data represents one of the two similar experiments. P values for PGE2 and Nitrite=^a≤0.5; ^b≤0.1; ^c≤0.05; ^d≤0.01.

The subject of experiment [3] is OA-affected cartilage. The experiment in a line: Spontaneous nitrite/nitric oxide release by OA-affected cartilage (ex vivo organ culture). In kind it is cell-based, human. The method, then: as §3, §4
A further experiment deals with TNFα. The experiment in a line: TNFα release in the medium by HEK 293 cells permanently transfected with human proTNFα (ELISA). The note with it: FIG. 8; 16 hours; words. In kind it is cell-based. The method, then:
HEK 293 cells were transfected with the proTNFα cDNA (wild) to prepare a stable cell line. […] A mutant form of proTNFα cDNA which could not be cleaved by the endogenous TNFα convertase (TACE) to release soluble TNFα was also transfected in separate human HEK 293 cells. The soluble TNFα was estimated by ELISA from the wild type and mutant transfected cells from the medium (FIG. 6).
HEK 293 cells were grown as previously described by American Type Culture Collection (ATCC). […] The HEK 293 cells were incubated with CMT-3 to examine the effects of CMT-3 on TNFα release in the medium.
HEK 293 cells were grown under the conditions previously described by ATCC. Various compounds, including CMT-3 and doxycycline/minocyclines were incubated with proTNFα transfected HEK 293 cells releasing TNFα in the medium at 16 hours. […] Soluble TNFα was estimated by ELISA from the medium.
In general terms: An ELISA detects its analyte on a solid surface through an enzyme-linked reagent.

For experiment [4], the system named is RAW 264.7 cells. The experiment in a line: Nitrite (NO) production/accumulation in LPS-stimulated RAW 264.7 cells. In kind it is cell-based, murine. Particulars: LPS 100 ng/ml, minocycline 40 μg/ml, 16 hours; for inhibition at 40 µg/mL: Mus musculus, RAW264.7, 16 h. The method, then: as §1, §2

We go through 1 molecule from patent US6319910A, “Method for inhibiting cyclooxygenase-2 and tumor necrosis factor alpha” (Hospital for Joint Diseases, priority 1998, dated 2001).

Broadly, the inhibition is the share of the control response that was lost under treatment.

“Also recorded” adds a separate entry of the source. Like-named read-outs stand apart in the source and are kept apart here.

With `CN(C)c1ccc(O)c2c1C[C@H]1C[C@H]3[C@H](N(C)C)C(O)=C(C(N)=O)C(=O)[C@@]3(O)C(O)=C1C2=O` [Minocycline, minocycline, reference compound], the figures for the PGE2 accumulation with RAW 264.7 cells [1] (Experiment I) and in the experiment with RAW 264.7 cells [1] (Experiment II) were 43.7 ± 8.6 ng/mL and 49.1 ± 10.0 ng/mL, respectively. The activation at 40 µg/mL in the experiment on RAW 264.7 cells [1] (read-out: PGE2 % (Increase), Experiment I) amounted to 172%; in the experiment on RAW 264.7 cells [1] (read-out: PGE2 % (Increase), Experiment II), 257%. The “Safety and efficacy in arthritis” value in the experiment on arthritis was “safe and effective for patients with mild and moderate arthritis”. Moreover, in the experiment on COX-2, the “Effect on COX-2 expression” value is “up-regulate COX-2 expression and PGE2 production”. Also, in the experiment on OA-affected cartilage [2] (Table 2, minocycline 10 μg/ml), the PGE2 amounted to 314.6 ± 58.4 ng/mL. Further, the “Effect on PGE2 production” value is “stimulates PGE2 production” in the experiment with OA-affected cartilage [2]; “up-regulate COX-2 expression and PGE2 production” in the experiment with OA-affected cartilage [2] (listed as minocycline). In the experiment with OA-affected cartilage [3] (Homo sapiens, Table 2, minocycline 10 μg/ml), the inhibition at 10 µg/mL was found to be 30%. Besides, the Nitrite with OA-affected cartilage [3] (Table 2, minocycline 10 μg/ml) is 66.0 ± 17.0 µM; in the experiment with RAW 264.7 cells [4] (Experiment I), 4.8 µM; in the experiment with RAW 264.7 cells [4] (Experiment II) it was 12.9 µM. In the experiment with OA-affected cartilage [3] (human OA-affected cartilage, words, listed as minocycline), the “Effect on NO production” value was “suppresses NO production; also recorded: inhibit NO production”. The “Effect on spontaneous TNFα release” value with TNFα is on record as “inhibit TNFα release”. Also, the inhibition at 40 µg/mL in the experiment on RAW 264.7 cells [4] (read-out: Nitrite % Inhibition, Experiment I) stood at 90%; in the experiment on RAW 264.7 cells [4] (read-out: Nitrite % Inhibition, Experiment II), 41%.
